Laboratory results reported in BindingDB's records for patent US20240335431 (Acerta Pharma, 2024).
pIC50: −log10 of the molar value.

Target: T1, Menin (Homo sapiens, UniProt O00255)
T1 sequence (O00255 whole entry): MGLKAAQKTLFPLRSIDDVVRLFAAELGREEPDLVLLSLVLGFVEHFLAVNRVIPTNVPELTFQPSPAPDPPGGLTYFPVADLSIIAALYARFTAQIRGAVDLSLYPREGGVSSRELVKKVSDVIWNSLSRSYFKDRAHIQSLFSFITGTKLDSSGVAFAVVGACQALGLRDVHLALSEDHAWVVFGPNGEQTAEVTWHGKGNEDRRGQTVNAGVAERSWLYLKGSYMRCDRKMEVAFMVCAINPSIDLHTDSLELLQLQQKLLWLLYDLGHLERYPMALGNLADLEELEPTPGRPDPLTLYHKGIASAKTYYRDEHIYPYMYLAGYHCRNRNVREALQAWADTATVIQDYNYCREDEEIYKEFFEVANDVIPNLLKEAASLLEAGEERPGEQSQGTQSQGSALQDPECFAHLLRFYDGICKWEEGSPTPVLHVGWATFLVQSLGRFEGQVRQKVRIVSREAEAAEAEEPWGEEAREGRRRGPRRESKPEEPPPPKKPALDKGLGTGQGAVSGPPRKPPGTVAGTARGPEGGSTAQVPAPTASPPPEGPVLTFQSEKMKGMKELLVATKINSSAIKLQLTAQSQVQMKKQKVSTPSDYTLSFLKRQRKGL
Assay: Fluorescence Polarization (FP) Assay
Description: Compounds were tested in a biochemical binding assay using Menin protein at 2 nM (N6his-tev-Menin_4i80, PB-20-1459) and the substrate cRho110-Ahx-MBM1/MBM2 peptide (UbiQ, UbiQ-Q20201030; cRh110-Ahx-[…]-QRVPALLLPPG-NH2) at 1 nM.384 Low volume black plates (Corning #4514) were used. 5 μL/well compound or 3% DMSO was added at 10-fold serial dilutions in DMSO from 10 μM. 5 μL/well cRho110-Ahx-MBM1/MBM2 peptide or binding buffer (50 mM Tris pH 7.5, 50 mM NaCl, 1 mM TCEP, 0.01% BGG, 0.01% Brij-35) was added to all wells. 5 μL/well Menin protein or binding buffer (50 mM Tris pH 7.5, 50 mM NaCl, 1 mM TCEP, 0.01% BGG, 0.01% Brij-35) was added to all wells. Plates were read on an EnVision plate reader (Perkin Elmer) with excitation at 480 nm and emission at 535 nm P+S, and measured every 5 minutes for 180 minutes.

SMILES | pIC50
CC(C)N(C(=O)c1cc(F)ccc1-n1cc(C(=O)[C@@H]2CCN(C[C@H]3CC[C@H](NS(C)(=O)=O)CC3)C2)c2ccncc21)C(C)C [US20240335431, Example 4] | 7.27
CCN(C(=O)c1cc(F)ccc1-n1c(C)c(C(=O)C2CCN(C(=O)[C@@H]3CCC4(CC4)N3)CC2)c2ccncc21)C(C)C (single isomer, unassigned) [US20240335431, Example 49-1] | 5.67
CC(C)N(C(=O)c1cc(F)ccc1-n1cc(C(=O)C2CCN(C(=O)[C@@H]3CC4(CC4)CN3)CC2)c2ccncc21)C(C)C [US20240335431, Example 26] | 7.37
CC(C)c1ncncc1-c1cc(F)ccc1-n1cc(C(=O)C2CCN(C(=O)[C@H]3N[C@@H]4CC[C@H]3C4)CC2)c2ccncc21 [US20240335431, Example 37] | 8.05
CC(C)N(C(=O)c1cc(F)ccc1-n1cc(C(=O)C2CCN(C(=O)[C@H]3NC[C@@H]4C[C@@H]43)CC2)c2ccncc21)C(C)C [US20240335431, Example 19] | 7.80
CCN(C(=O)c1cc(F)ccc1-n1cc(C(=O)C2CCN(C(=O)[C@H]3N[C@H]4C[C@@H]3[C@@H](F)C4)CC2)c2ccncc21)C(C)C [US20240335431, Example 30] | 7.77
CC(C)N(C(=O)c1cc(F)ccc1-n1cc(C(=O)C2CN(C(=O)[C@H]3N[C@@H]4CC[C@H]3C4)C2)c2ccncc21)C(C)C [US20240335431, Example 5] | 7.74
CCN(C(=O)c1cc(F)ccc1-n1c(C)c(C(=O)[C@@H]2CCN(C(=O)[C@@H]3CCC4(CC4)N3)[C@@H](C)C2)c2ccncc21)C(C)C (single isomer, unassigned; form 2) [US20240335431, Example 52-2] | 7.74
CC(C)(F)c1ncccc1-c1cc(F)ccc1-n1cc(C(=O)C2CN(C(=O)[C@H]3N[C@@H]4CC[C@H]3C4)C2)c2ccncc21 [US20240335431, Example 13] | 8.40
Cc1c(C(=O)C2CCN(C(=O)[C@@H]3CC[C@H](C)N3)CC2)c2ccncc2n1-c1ccc(F)cc1C(=O)N(C(C)C)C(C)C [US20240335431, Example 60] | 6.98
CC(C)N(C(=O)c1cc(F)ccc1-n1cc(C(=O)C2CN(C(=O)[C@H]3NC4CCC3CC4)C2)c2ccncc21)C(C)C [US20240335431, Example 6] | 7.38
CC(C)N(C(=O)c1cc(F)ccc1-n1cc(C(=O)[C@@H]2CCN(C(=O)[C@H]3N[C@@H]4CC[C@H]3C4)C2)c2ccncc21)C(C)C [US20240335431, Example 3] | 7.60
CCN(C(=O)c1cc(F)ccc1-n1c(C)c(C(=O)C2CCN(C(=O)[C@H]3N[C@@H]4CC[C@H]3C4)CC2)c2ccncc21)C(C)C [US20240335431, Example 46] | 7.47
CC(C)c1ncccc1-c1cc(F)ccc1-n1cc(C(=O)C2CN(C(=O)[C@H]3N[C@@H]4CC[C@H]3C4)C2)c2ccncc21 [US20240335431, Example 10] | 8.40
CCN(C(=O)c1cc(F)ccc1-n1c(C)c(C(=O)[C@@H]2CCN(C(=O)[C@@H]3CC[C@H](C)N3)[C@@H](C)C2)c2ccncc21)C(C)C [US20240335431, Example 63] | 7.23
CCN(C(=O)c1cc(F)ccc1-n1c(C)c(C(=O)[C@@H]2CCN(C(=O)[C@@H]3CCC4(CC4)N3)[C@@H](C)C2)c2ccncc21)C(C)C (single isomer, unassigned; form 1) [US20240335431, Example 52-1] | 7.80
Cc1c(C(=O)[C@@H]2CCN(C(=O)[C@@H]3CC[C@@H](C)N3)[C@@H](C)C2)c2ccncc2n1-c1ccc(F)cc1C(=O)N(C(C)C)C(C)C [US20240335431, Example 64] | 7.08
CCN(C(=O)c1cc(F)ccc1-n1c(C)c(C(=O)C2CCN(C(=O)[C@@H]3CCC(C)(C)N3)CC2)c2ccncc21)C(C)C (single isomer, unassigned) [US20240335431, Example 50-1] | 5.26
CC(C)N(C(=O)c1cc(F)ccc1-n1cc(C(=O)C2CCN(C[C@H]3CC[C@H](NS(C)(=O)=O)CC3)CC2)c2ccncc21)C(C)C [US20240335431, Example 17] | 7.68
CCN(C(=O)c1cc(F)ccc1-n1cc(C(=O)C2CCN(C(=O)[C@H]3N[C@@H]4CC[C@H]3C4)CC2)c2ccncc21)C(C)C [US20240335431, Example 31] | 8.00
CCN(C(=O)c1cc(F)ccc1-n1c(C)c(C(=O)[C@@H]2CCN(C(=O)[C@@H]3CC[C@@H](C)N3)[C@@H](C)C2)c2ccncc21)C(C)C [US20240335431, Example 65] | 7.10
C[C@@H]1CCC[C@H](C)N1C(=O)c1cc(F)ccc1-n1cc(C(=O)C2CCN(C(=O)[C@H]3N[C@@H]4CC[C@H]3C4)CC2)c2ccncc21 [US20240335431, Example 33] | 7.43
COCCN(C)CCC[C@H](C(C)C)N1CCC(C(=O)c2cn(-c3ccc(F)cc3C(=O)N(C(C)C)C(C)C)c3cnccc23)CC1 (racemic) [US20240335431, Example 23] | 8.15
CC(C)N(C(=O)c1cc(F)ccc1-n1cc(C(=O)C2CCN(C(=O)[C@H]3NC[C@@H]4CCC[C@@H]43)CC2)c2ccncc21)C(C)C [US20240335431, Example 21] | 7.80
CC(C)N(C(=O)c1cc(F)ccc1-n1cc(C(=O)C2CN(C(=O)[C@H]3N[C@@H]4CC[C@H]3C4)C2)c2ccnc(F)c21)C(C)C [US20240335431, Example 15] | 7.77
CC(C)c1ccncc1-c1cc(F)ccc1-n1cc(C(=O)C2CCN(C(=O)[C@H]3N[C@@H]4CC[C@H]3C4)CC2)c2ccncc21 [US20240335431, Example 41] | 8.00

Now from value to compound:

pIC50 | SMILES
7.89 | CC(C)c1ncccc1-c1cc(F)ccc1-n1cc(C(=O)C2CCN(C(=O)[C@H]3N[C@@H]4CC[C@H]3C4)CC2)c2ccncc21 [US20240335431, Example 38]
7.33 | CC(C)N(C(=O)c1cc(F)ccc1-n1cc(C(=O)[C@H]2CCN(C(=O)[C@H]3N[C@@H]4CC[C@H]3C4)C2)c2ccncc21)C(C)C [US20240335431, Example 2]
6.45 | Cc1c(C(=O)C2CCN(C(=O)[C@@H]3CCC4(CC4)N3)CC2)c2ccncc2n1-c1ccc(F)cc1C(=O)N1[C@H](C)COC[C@H]1C (single isomer, unassigned) [US20240335431, Example 58-1]
7.57 | CCN(C(=O)c1cc(F)ccc1-n1cc(C(=O)C2CN(C(=O)[C@H]3N[C@@H]4CC[C@H]3C4)C2)c2ccncc21)C(C)C [US20240335431, Example 8]
7.68 | CC(C)N(C(=O)c1cc(F)ccc1-n1cc(C(=O)C2CCN(C(=O)[C@H]3N[C@@H]4CC[C@H]3C4)CC2)c2ccncc21)C(C)C [US20240335431, Example 16]
7.74 | O=C(c1cn(-c2ccc(F)cc2-c2cncnc2C2CC2)c2cnccc12)C1CCN(C(=O)[C@H]2N[C@@H]3CC[C@H]2C3)CC1 [US20240335431, Example 40]
6.86 | CC(C)N(C(=O)c1cc(F)ccc1-n1cc(C(=O)C2CN(C(=O)[C@H]3N[C@@H]4CC[C@H]3C4)C2)c2ccnnc21)C(C)C [US20240335431, Example 14]
7.54 | CC(C)N(C(=O)c1cc(F)ccc1-n1cc(C(=O)[C@H]2CCN(C[C@H]3CC[C@H](NS(C)(=O)=O)CC3)C2)c2ccncc21)C(C)C [US20240335431, Example 1]
6.11 | Cc1c(C(=O)C2CCN(C(=O)[C@H]3NC[C@@H]4C[C@@H]43)CC2)c2ccncc2n1-c1ccc(F)cc1C(=O)N(CC(F)(F)F)C(C)C (single isomer, unassigned) [US20240335431, Example 51-1]
7.43 | C=C1C[C@@H]2CC[C@H]1[C@@H](C(=O)N1CCC(C(=O)c3cn(-c4ccc(F)cc4C(=O)N(C(C)C)C(C)C)c4cnccc34)CC1)N2 [US20240335431, Example 18]
8.15 | CC(C)c1ccccc1-c1cc(F)ccc1-n1cc(C(=O)C2CCN(C(=O)[C@H]3N[C@@H]4CC[C@H]3C4)CC2)c2ccncc21 [US20240335431, Example 39]
7.72 | CC(C)N(C(=O)c1cc(F)ccc1-n1cc(C(=O)C2CCN(C(=O)[C@@H]3CCC4(CC4)N3)CC2)c2ccncc21)C(C)C [US20240335431, Example 24]
7.24 | CC(C)N(C(=O)c1cc(F)ccc1-n1cc(C(=O)C2CCN(C(=O)[C@H]3N[C@@H]4CC[C@H]3C4)CC2)c2c(F)cncc21)C(C)C [US20240335431, Example 44]
7.48 | Cc1c(C(=O)C2CCN(C(=O)[C@H]3NC[C@@H]4C[C@@H]43)CC2)c2ccncc2n1-c1ccc(F)cc1C(=O)N(C(C)C)[C@H](C)C(F)(F)F (single isomer, unassigned) [US20240335431, Example 57-1]
7.60 | CC(C)N(C(=O)c1cc(F)ccc1-n1cc(C(=O)C2CCN(C(=O)[C@H]3N[C@H]4C[C@@H]3[C@@H](F)C4)CC2)c2ccncc21)C(C)C [US20240335431, Example 22]
